{
  "source": "patent US20090162413A1",
  "about": "(priority 1998, published 2009)",
  "key": {"[1]": {"system": "porcine coronary arteries (neointimal hyperplasia)", "assay": "porcine coronary stent model, zotarolimus-eluting BiodivYsio PC stent vs polymer only stent, 28 days (Example 3)", "type": "in vivo", "details": "stent eluting zotarolimus from a polymer, porcine coronary artery"}, "[2]": {"assay": "Phase 1 single escalating intravenous dose safety and pharmacokinetics (Example 6)", "type": "in vivo, human", "details": "for β: elimination rate constant; for tolerability: single IV doses of 100 to 900 μg", "method": "In the present, first-time-in-man study, the safety and pharmacokinetics of zotarolimus were investigated following intravenous bolus administration of zotarolimus over a 100 to 900 μg dose range. The intravenous bolus dose administration would mimic the most rapid unexpected release of zotarolimus from drug-coated stents in vivo.\nThis was a Phase 1, single escalating dose, double-blind, randomized, placebo-controlled, single-center study. Sixty (60) adult healthy males were divided into 5 IV dose groups of 100, 300, 500, 700, and 900 μg.\nSubjects were randomly assigned to receive a single intravenous dose of zotarolimus or a matching intravenous placebo under fasting conditions, as shown in the dosing scheme shown in Table 9.\nHigher doses were administered after evaluating the safety data from the preceding lower dose groups. The treatment groups were separated by at least 7 days. For safety reasons, each treatment group was divided into two cohorts of six subjects and the doses of the two cohorts of a group were separated by at least 1 day.\nDoses were administered as IV bolus over 3 minutes, with 8 subjects. Four subjects received zotarolimus and 4 subjects received placebo in each dose group. Blood concentrations of zotarolimus were sampled for 168 hours and measured using LC-MS/MS with a LOQ of 0.20 ng/mL\nSeven (7)-mL blood samples were collected by venipuncture into evacuated collection tubes containing edetic acid (EDTA) prior to dosing (0 hour) and at 0.083 (5 min), 0.25, 0.5, 1, 2, 4, 8, 12, 16, 24, 36, 48, 72, 96, 120, 144, and 168 hours after dosing on Study Day 1.\nBlood concentrations of zotarolimus were determined using a validated liquid/liquid extraction HPLC tandem mass spectrometric method (LC-MS/MS) (Ji et al., 2004). The lower limit of quantification of zotarolimus was 0.20 ng/mL using 0.3 mL blood sample. All calibration curves had coefficient of determination (r^2) values greater than or equal to 0.9923.\nSafety was evaluated based on adverse event, physical examination, vital signs, ECG, injection site and laboratory tests assessments.\nPharmacokinetic parameter values of zotarolimus were estimated using noncompartmental methods.\nTo investigate the questions of dose proportionality and linear pharmacokinetics, an analysis of covariance (ANCOVA) was performed. Subjects were classified by dose level, and body weight was a covariate. The variables analyzed included β, Vdβ, dose-normalized C5, and logarithms of dose-normalized AUC0-last and dose-normalized AUC0-inf. The primary test of the hypothesis of invariance with dose was a test on dose-level effects with good power for a monotonic function of dose. In addition, the highest and lowest dose levels were compared within the framework of the ANCOVA"}, "[3]": {"details": "single IV bolus 100 μg, mean ± SD"}, "[4]": {"details": "single IV bolus 300 μg, mean ± SD"}, "[5]": {"details": "single IV bolus 500 μg, mean ± SD"}, "[6]": {"details": "single IV bolus 700 μg, mean ± SD"}, "[7]": {"details": "single IV bolus 900 μg, mean ± SD"}},
  "note": "Read-outs that look alike come from different tables or passages of the source.",
  "data": [
    {"smiles": "CO[C@H]1C[C@@H]2CC[C@@H](C)[C@@](O)(O2)C(=O)C(=O)N2CCCC[C@H]2C(=O)O[C@H]([C@H](C)C[C@@H]2CC[C@H](n3cnnn3)[C@H](OC)C2)CC(=O)[C@H](C)/C=C(\\C)[C@@H](O)[C@@H](OC)C(=O)[C@H](C)C[C@H](C)/C=C/C=C/C=C/1C", "note": "[zotarolimus]", "values": [
      {"measurement": "neointimal hyperplasia", "setting": "[1]", "value": "reduction in neointimal hyperplasia"},
      {"measurement": "dose proportionality of pharmacokinetics", "setting": "[2]; IV, 100-900 μg dose range, with respect to C5 and AUC0-inf", "value": "dose-proportional"},
      {"measurement": "clearance", "setting": "[2]; male, human, whole blood, range of means over single IV doses 100-900 μg, read-out: mean clearance", "value": "48.3 to 59.2", "unit": "mL/min"},
      {"measurement": "Vd", "setting": "[2]; male, human, whole blood, range of means over single IV doses 100-900 μg, read-out: mean volume of distribution", "value": "113 to 202", "unit": "L"},
      {"measurement": "half-life", "setting": "[2]; male, human, whole blood, range of means over the studied single IV doses 100-900 μg, read-out: mean half-life", "value": "26 to 40.2", "unit": "h"},
      {"measurement": "half-life", "setting": "[2]; male, human, whole blood, single IV bolus 100 μg, harmonic mean ± pseudo-standard deviation, read-out: t1/2 (converted)", "value": "26 ± 6", "unit": "h"},
      {"measurement": "AUC(0-t)", "setting": "[2]; male, human, whole blood, single IV bolus 100 μg, mean ± SD", "value": "24.6 ± 5.89", "unit": "ng·h/mL"},
      {"measurement": "AUC(0-inf)", "setting": "[2]; male, human, whole blood, single IV bolus 100 μg, mean ± SD, read-out: AUC0-inf", "value": "35.3 ± 6.15", "unit": "ng·h/mL"},
      {"measurement": "clearance", "setting": "[2]; male, human, whole blood, single IV bolus 100 μg, mean ± SD, read-out: CL (converted)", "value": 48.3, "unit": "mL/min"},
      {"measurement": "half-life", "setting": "[2]; male, human, whole blood, single IV bolus 300 μg, harmonic mean ± pseudo-standard deviation, read-out: t1/2 (converted)", "value": "35.9 ± 4.6", "unit": "h"},
      {"measurement": "AUC(0-t)", "setting": "[2]; male, human, whole blood, single IV bolus 300 μg, mean ± SD", "value": "77.8 ± 13.7", "unit": "ng·h/mL"},
      {"measurement": "AUC(0-inf)", "setting": "[2]; male, human, whole blood, single IV bolus 300 μg, mean ± SD, read-out: AUC0-inf", "value": "91.2 ± 14.7", "unit": "ng·h/mL"},
      {"measurement": "clearance", "setting": "[2]; male, human, whole blood, single IV bolus 300 μg, mean ± SD, read-out: CL (converted)", "value": 56, "unit": "mL/min"},
      {"measurement": "half-life", "setting": "[2]; male, human, whole blood, single IV bolus 500 μg, harmonic mean ± pseudo-standard deviation, read-out: t1/2 (converted)", "value": "40.2 ± 7.8", "unit": "h"},
      {"measurement": "concentration at 5 min", "setting": "[2]; male, human, whole blood, single IV bolus 500 μg, healthy males, blood, concentration at 5 minutes, mean ± SD (N = 7), read-out: C5", "value": "56.5 ± 27.5", "unit": "ng/mL"},
      {"measurement": "AUC(0-t)", "setting": "[2]; male, human, whole blood, single IV bolus 500 μg, mean ± SD", "value": "146 ± 32.4", "unit": "ng·h/mL"},
      {"measurement": "AUC(0-inf)", "setting": "[2]; male, human, whole blood, single IV bolus 500 μg, mean ± SD, read-out: AUC0-inf", "value": "162 ± 29.6", "unit": "ng·h/mL"},
      {"measurement": "clearance", "setting": "[2]; male, human, whole blood, single IV bolus 500 μg, mean ± SD, read-out: CL (converted)", "value": 52.8, "unit": "mL/min"},
      {"measurement": "AUC(0-t)", "setting": "[2]; male, human, whole blood, single IV bolus 700 μg, mean ± SD", "value": "208 ± 19.4", "unit": "ng·h/mL"},
      {"measurement": "AUC(0-inf)", "setting": "[2]; male, human, whole blood, single IV bolus 700 μg, mean ± SD, read-out: AUC0-inf", "value": "222 ± 19.6", "unit": "ng·h/mL"},
      {"measurement": "AUC(0-t)", "setting": "[2]; male, human, whole blood, single IV bolus 900 μg, mean ± SD", "value": "241 ± 19.2", "unit": "ng·h/mL"},
      {"measurement": "AUC(0-inf)", "setting": "[2]; male, human, whole blood, single IV bolus 900 μg, mean ± SD, read-out: AUC0-inf", "value": "254 ± 17.6", "unit": "ng·h/mL"},
      {"measurement": "clearance", "setting": "[2]; male, human, whole blood, single IV bolus 900 μg, mean ± SD, read-out: CL (converted)", "value": 59.2, "unit": "mL/min"},
      {"measurement": "β", "setting": "[2]; [3]", "value": "0.027 ± 0.006", "unit": "h⁻¹"},
      {"measurement": "AUC0-inf/Dose", "setting": "[2]; [3]", "value": "0.35 ± 0.06", "unit": "ng·h/mL/µg"},
      {"measurement": "AUC0-last/Dose", "setting": "[2]; [3]", "value": "0.25 ± 0.06", "unit": "ng·h/mL/µg"},
      {"measurement": "C5/Dose", "setting": "[2]; [3]", "value": "0.13 ± 0.03", "unit": "ng/mL/µg"},
      {"measurement": "Vdβ", "setting": "[2]; [3]", "value": "113 ± 23", "unit": "L"},
      {"measurement": "β", "setting": "[2]; [4]", "value": "0.019 ± 0.002", "unit": "h⁻¹"},
      {"measurement": "AUC0-inf/Dose", "setting": "[2]; [4]", "value": "0.30 ± 0.05", "unit": "ng·h/mL/µg"},
      {"measurement": "AUC0-last/Dose", "setting": "[2]; [4]", "value": "0.26 ± 0.05", "unit": "ng·h/mL/µg"},
      {"measurement": "C5/Dose", "setting": "[2]; [4]", "value": "0.12 ± 0.03", "unit": "ng/mL/µg"},
      {"measurement": "Vdβ", "setting": "[2]; [4]", "value": "175 ± 23", "unit": "L"},
      {"measurement": "β", "setting": "[2]; [5]", "value": "0.017 ± 0.003", "unit": "h⁻¹"},
      {"measurement": "C5", "setting": "[2]; single IV bolus 500 μg, healthy males, blood, concentration at 5 minutes, mean ± SD (N = 7)", "value": "56.50 ± 27.54", "unit": "ng/mL"},
      {"measurement": "AUC0-inf/Dose", "setting": "[2]; [5]", "value": "0.32 ± 0.06", "unit": "ng·h/mL/µg"},
      {"measurement": "AUC0-last/Dose", "setting": "[2]; [5]", "value": "0.29 ± 0.06", "unit": "ng·h/mL/µg"},
      {"measurement": "AUC(0-inf)", "setting": "[2]; [5]", "value": "162.44 ± 9.58", "unit": "ng·h/mL"},
      {"measurement": "C5/Dose", "setting": "[2]; [5]", "value": "0.11 ± 0.05", "unit": "ng/mL/µg"},
      {"measurement": "Vdβ", "setting": "[2]; [5]", "value": "190 ± 49", "unit": "L"},
      {"measurement": "β", "setting": "[2]; [6]", "value": "0.020 ± 0.001", "unit": "h⁻¹"},
      {"measurement": "t1/2", "setting": "[2]; single IV bolus 700 μg, harmonic mean ± pseudo-standard deviation", "value": "35.0 ± 2.4", "unit": "h"},
      {"measurement": "AUC0-inf/Dose", "setting": "[2]; [6]", "value": "0.32 ± 0.03", "unit": "ng·h/mL/µg"},
      {"measurement": "AUC0-last/Dose", "setting": "[2]; [6]", "value": "0.30 ± 0.03", "unit": "ng·h/mL/µg"},
      {"measurement": "C5/Dose", "setting": "[2]; [6]", "value": "0.13 ± 0.01", "unit": "ng/mL/µg"},
      {"measurement": "CL", "setting": "[2]; [6]", "value": "3.18 ± 0.28", "unit": "L/h"},
      {"measurement": "Vdβ", "setting": "[2]; [6]", "value": "161 ± 15", "unit": "L"},
      {"measurement": "β", "setting": "[2]; [7]", "value": "0.018 ± 0.002", "unit": "h⁻¹"},
      {"measurement": "t1/2", "setting": "[2]; single IV bolus 900 μg, harmonic mean ± pseudo-standard deviation", "value": "39.0 ± 3.9", "unit": "h"},
      {"measurement": "AUC0-inf/Dose", "setting": "[2]; [7]", "value": "0.28 ± 0.02", "unit": "ng·h/mL/µg"},
      {"measurement": "AUC0-last/Dose", "setting": "[2]; [7]", "value": "0.27 ± 0.02", "unit": "ng·h/mL/µg"},
      {"measurement": "C5/Dose", "setting": "[2]; [7]", "value": "0.12 ± 0.02", "unit": "ng/mL/µg"},
      {"measurement": "Vdβ", "setting": "[2]; [7]", "value": "202 ± 29", "unit": "L"},
      {"measurement": "serious adverse events", "setting": "[2]; single IV doses 100-900 μg", "value": "no serious adverse events"},
      {"measurement": "tolerability", "setting": "[2]; healthy males", "value": "without safety concerns"},
      {"measurement": "tolerability", "setting": "[2]; healthy males, listed as Zotarolimus", "value": "generally well tolerated"},
      {"measurement": "most common treatment-emergent adverse events", "setting": "[2]; single IV doses, reported by two or more subjects in any one treatment group", "value": "injection site reaction and pain"}
    ]}
  ]
}
